± gives the standard deviation of the reports.
Question: With `*CC(*)C(=O)Oc1ccc(OC)cc1` (repeat unit) as the molecule, how does the glass transition temperature read?
Answer: 50.50 °C

Question: With `*O[Si](*)(C)CCCOC(=O)c1cc(OC(=O)c2ccc(OCCOCCOCCOCCOC)cc2)ccc1OC(=O)c1ccc(OCCOCCOCCOCCOC)cc1` (repeat unit) as the molecule, how does the glass transition temperature read?
Answer: -37.00 °C

Question: Which glass transition temperature does the source give for `*Oc1ccc(C2(c3ccc(Oc4ccc(-c5ccc(NC(=O)c6cc(C(=O)Nc7ccc(-c8ccc(*)c(C(F)(F)F)c8)cc7)cc(C(C)(C)C)c6)cc5)cc4C(F)(F)F)cc3)c3ccccc3-c3ccccc32)cc1` (repeat unit) here?
Answer: 278.00 °C

Question: With `*c1ccc(Oc2ccc(Oc3ccc(N4C(=O)c5ccc(Oc6ccc(C(c7ccccc7)(c7ccccc7)c7ccc(Oc8ccc9c(c8)C(=O)N(*)C9=O)cc7)cc6)cc5C4=O)cc3)c(C(C)(C)C)c2)cc1` (repeat unit) as the molecule, how does the glass transition temperature read?
Answer: 229.00 °C

Question: With `*C(=O)c1ccc2c(c1)C(=O)N(c1cccc(NC(=O)c3cccc(C(=O)Nc4cccc(N5C(=O)c6ccc(*)cc6C5=O)c4)c3)c1)C2=O` (repeat unit) as the molecule, how does the glass transition temperature read?
Answer: 204.00 °C

Question: With `*CC(O)CN(C)S(=O)(=O)c1cccc(S(=O)(=O)N(C)CC(O)COc2ccc(O*)cc2)c1` (repeat unit) as the molecule, how does the glass transition temperature read?
Answer: 66.00 °C

Question: For `*c1cccc(C(=O)c2ccc(Oc3ccc(N4C(=O)c5ccc(Oc6ccc7c(c6)C(=O)N(*)C7=O)cc5C4=O)cc3C(F)(F)F)cc2)c1` (repeat unit), which glass transition temperature is on record?
Answer: 224.00 °C

Question: For `*c1cccc(NC(=O)c2ccc(OCCOCCOCCOCCOc3ccc(C(=O)Nc4ccc5[nH]c(*)nc5c4)cc3)cc2)c1` (repeat unit), which glass transition temperature is on record?
Answer: 155.00 °C

Question: Which glass transition temperature does the source give for `*/C=C/c1ccc(/C=C/[Si](C)(CCC(F)(F)F)c2cccc([Si](*)(C)CCC(F)(F)F)c2)cc1` (repeat unit) here?
Answer: 23.40 °C

Question: With `*C(=O)Nc1ccc(Oc2c(C)cc(C(C)(C)c3cc(C)c(Oc4ccc(NC(=O)c5ccc6c(c5)C(=O)N(c5ccc(Oc7ccc(C8(c9ccc(Oc%10ccc(N%11C(=O)c%12ccc(*)cc%12C%11=O)cc%10)cc9)CC9CC8C8CCCC98)cc7)cc5)C6=O)cc4)c(C)c3)cc2C)cc1` (repeat unit) as the molecule, how does the glass transition temperature read?
Answer: 276.00 °C

Question: Which glass transition temperature does the source give for `*c1ccc(Oc2ccc(Oc3ccc(N4C(=O)c5cccc(Oc6cccc7c6C(=O)N(*)C7=O)c5C4=O)cc3)cc2)cc1` (repeat unit) here?
Answer: 260.50 ± 3.5 °C

Question: For `*Oc1ccc(S(=O)(=O)c2ccc(Oc3ccc(/C=C4\CCC/C(=C\c5ccc(*)cc5)C4=O)cc3)cc2)cc1` (repeat unit), which glass transition temperature is on record?
Answer: 190.00 °C

Question: For `*CCN(*)CCOCCOC` (repeat unit), which glass transition temperature is on record?
Answer: 16.00 °C

Question: For `*CC(c1ccccc1)C1C(=O)N(CCCCCCCCCCCC)C(=O)C1*` (repeat unit), which glass transition temperature is on record?
Answer: 70.00 °C

Question: With `*Oc1ccc(S(=O)(=O)c2ccc(Oc3ccc(-c4ccc(Oc5ccc(C(=O)c6ccc(*)cc6)cc5)cc4)cc3)cc2)cc1` (repeat unit) as the molecule, how does the glass transition temperature read?
Answer: 206.00 °C

Question: Which glass transition temperature does the source give for `*Oc1ccc(Oc2ccc(S(=O)c3ccc(Oc4ccc(Oc5cccc(*)n5)cc4)cc3)cc2)cc1` (repeat unit) here?
Answer: 138.00 °C

Question: Which glass transition temperature does the source give for `*Oc1ccc(NC(=O)c2cc(NC(=O)CCN3C(=O)c4ccccc4C3=O)cc(C(=O)Nc3ccc(*)cc3)c2)cc1` (repeat unit) here?
Answer: 240.00 °C

Question: With `*CC(F)(F)C(F)(F)C(F)(F)COC(=O)CCCCC(=O)O*` (repeat unit) as the molecule, how does the glass transition temperature read?
Answer: -60.50 °C

Question: With `*O[Si](C)(C)c1cccc([Si](*)(C)C)c1` (repeat unit) as the molecule, how does the glass transition temperature read?
Answer: -48.00 °C

Question: Which glass transition temperature does the source give for `*CC(C)(CO*)COCCCCCCCCCCOc1ccc(-c2ccc(C#N)cc2)cc1` (repeat unit) here?
Answer: 7.00 °C

Question: Which glass transition temperature does the source give for `*C(=O)OCCOC(=O)c1ccc(*)o1` (repeat unit) here?
Answer: 89.0 °C

Question: Which glass transition temperature does the source give for `*OC(COC(=O)C1CCC(C(*)=O)CC1)COc1ccc(/N=N/c2ccc(C#N)cc2)cc1` (repeat unit) here?
Answer: 106.00 °C

Question: For `*/C=C/c1ccc(N(CC)Cc2ccccc2CN(CC)c2ccc(/C=C/c3ccc(/C=C(\C#N)S(=O)(=O)/C(C#N)=C/c4ccc(*)s4)s3)cc2)cc1` (repeat unit), which glass transition temperature is on record?
Answer: 178.00 °C

Question: For `*CCCCCCCCCc1nc2ccc(-c3ccc4nc(*)oc4c3)cc2o1` (repeat unit), which glass transition temperature is on record?
Answer: 64.00 °C

Question: With `*Oc1ccc(CC(NC(=O)CCc2ccc(OC(=O)COCCOCC(*)=O)cc2)C(=O)OCCCC)cc1` (repeat unit) as the molecule, how does the glass transition temperature read?
Answer: 45.00 °C

Question: Which glass transition temperature does the source give for `*Oc1ccc(C2(c3ccc(OC(=O)CCCCCCCCC(*)=O)cc3)c3ccccc3Cc3ccccc32)cc1` (repeat unit) here?
Answer: 134.00 °C

Question: With `*OC(=O)c1ccc(Cc2ccc(C(*)=O)cc2)cc1` (repeat unit) as the molecule, how does the glass transition temperature read?
Answer: 122.00 °C

Question: With `*/C=C(\C#N)c1cccc(/C(C#N)=C/c2ccc(/C=C/c3ccc(N(CC)Cc4ccccc4CN(CC)c4ccc(/C=C/c5ccc(*)s5)cc4)cc3)s2)c1` (repeat unit) as the molecule, how does the glass transition temperature read?
Answer: 178.00 °C

Question: Which glass transition temperature does the source give for `*CC/C(=C(/*)c1ccccc1)c1ccccc1` (repeat unit) here?
Answer: 120.50 °C

Question: For `*CC(C)(CC)COC(=O)c1ccc(C(=O)O*)cc1` (repeat unit), which glass transition temperature is on record?
Answer: 63.00 °C

Question: With `*CCCCCCCCCCOC(=O)CCCCCCC(=O)O*` (repeat unit) as the molecule, how does the glass transition temperature read?
Answer: -22.00 °C

Question: For `*c1cc(C)c(*)s1` (repeat unit), which glass transition temperature is on record?
Answer: 114.20 °C

Question: For `*CC(*)(C)C(=O)OCCCCCCCCCCn1c2ccccc2c2cc(/N=N/c3ccc([N+](=O)[O-])cc3)ccc21` (repeat unit), which glass transition temperature is on record?
Answer: 36.00 °C

Question: For `*CC(*)(C)C(=O)OC1(C)C2CC3CC(C2)CC1C3` (repeat unit), which glass transition temperature is on record?
Answer: 165.00 °C

Question: Which glass transition temperature does the source give for `*[O][Ca][O]C(=O)c1ccccc1C(=O)OCCCCCOC(=O)Nc1cc(NC(=O)OCCCCCOC(=O)c2ccccc2C(*)=O)ccc1C` (repeat unit) here?
Answer: 5.10 °C

Question: For `*O[Si](C)(C)c1ccc2cc([Si](*)(C)C)ccc2c1` (repeat unit), which glass transition temperature is on record?
Answer: 29.00 °C

Question: For `*CC(*)(C)C(=O)OCCN(C)c1ccc(/N=N/c2ccc(S(=O)(=O)Nc3cc(C)on3)cc2)cc1` (repeat unit), which glass transition temperature is on record?
Answer: 123.00 °C

Question: For `*c1ccc2c(c1)C(=O)N(c1ccc(Oc3ccccc3-c3ccccc3Oc3ccc(N4C(=O)c5ccc(C(*)(C(F)(F)F)C(F)(F)F)cc5C4=O)cc3)cc1)C2=O` (repeat unit), which glass transition temperature is on record?
Answer: 78.00 °C

Question: Which glass transition temperature does the source give for `*C(=O)Nc1ccc(Oc2ccc(NC(=O)c3ccc4c(c3)C(=O)N(C3CCC(CC5CCC(N6C(=O)c7ccc(*)cc7C6=O)CC5)CC3)C4=O)cc2)cc1` (repeat unit) here?
Answer: 250.00 °C

Question: With `*c1cccc(S(=O)(=O)c2cccc(-n3c(=O)c4cc5c(=O)n(*)c(=O)c5cc4c3=O)c2)c1` (repeat unit) as the molecule, how does the glass transition temperature read?
Answer: 360.00 °C

Question: For `*CC(*)c1ccc(C(=O)CCCCC)cc1` (repeat unit), which glass transition temperature is on record?
Answer: 66.00 °C

Question: Which glass transition temperature does the source give for `*c1cccc(P(=O)(c2cccc(-n3c(=O)c4cc5c(=O)n(*)c(=O)c5cc4c3=O)c2)c2cc(C(F)(F)F)cc(C(F)(F)F)c2)c1` (repeat unit) here?
Answer: 281.00 °C

Question: For `*CCCCNC(=O)Cc1ccc(C(=O)N*)cc1` (repeat unit), which glass transition temperature is on record?
Answer: 84.00 °C

Question: With `*OC(=O)Oc1ccc(C(C)(C)c2ccc(OC(=O)OC3CC4CC(*)CC(C3)O4)cc2)cc1` (repeat unit) as the molecule, how does the glass transition temperature read?
Answer: 194.00 °C

Question: Which glass transition temperature does the source give for `*CC(*)(C)C(=O)OCCCCCCc1ccc(/C(C)=C/c2ccc(OC)cc2)cc1` (repeat unit) here?
Answer: 31.00 °C

Question: Which glass transition temperature does the source give for `*Oc1ccc(-c2ccc(OC(=O)c3ccc(Oc4ccc(C5(c6ccc(Oc7ccc(C(*)=O)cc7)cc6)CCC(C(C)(C)C)CC5)cc4)cc3)cc2C)c(C)c1` (repeat unit) here?
Answer: 163.00 °C

Question: With `*CC(*)CC1CCCC1` (repeat unit) as the molecule, how does the glass transition temperature read?
Answer: 60.00 °C

Question: Which glass transition temperature does the source give for `*Oc1ccc(/C(=N/c2ccc(/N=C(\c3ccccc3)c3ccc(Oc4ccc(C(c5ccccc5)(c5ccccc5)c5ccc(*)cc5)cc4)cc3)cc2)c2ccccc2)cc1` (repeat unit) here?
Answer: 198.00 °C

Question: Which glass transition temperature does the source give for `*Cc1cc2cc(C(=O)Nc3ccc(Cc4ccc(NC(=O)c5cc6cc(*)c(OC(=O)COc7ccc8ccc(=O)oc8c7)cc6oc5=O)cc4)cc3)c(=O)oc2cc1OC(=O)COc1ccc2ccc(=O)oc2c1` (repeat unit) here?
Answer: 221.00 °C

Question: For `*CCCCCCCCCCC(=O)Nc1ccc(Oc2ccc(Oc3ccc(NC(=O)CCCCCCCCCCN4C(=O)c5ccc(C(=O)c6ccc7c(c6)C(=O)N(*)C7=O)cc5C4=O)cc3)cc2)cc1` (repeat unit), which glass transition temperature is on record?
Answer: 122.00 °C

Question: For `*c1ccc(NC(=O)CCCCCC(=O)Nc2ccc(S(*)(=O)=O)cc2)cc1` (repeat unit), which glass transition temperature is on record?
Answer: 163.00 °C

Question: For `*c1ccc(Oc2ccc(-c3c(-c4ccccc4)c4c(c(-c5ccccc5)c3-c3ccccc3)C(=O)N(c3ccc(N5C(=O)c6c(c(-c7ccccc7)c(-c7ccccc7)c(*)c6-c6ccccc6)C5=O)cc3)C4=O)cc2)cc1` (repeat unit), which glass transition temperature is on record?
Answer: 371.00 °C

Question: With `*Oc1ccc(NC(=C(C#N)C#N)c2ccc(-c3ccc(C(Nc4ccc(*)cc4)=C(C#N)C#N)cc3)cc2)cc1` (repeat unit) as the molecule, how does the glass transition temperature read?
Answer: 220.00 °C

Question: For `*CCCCCCCCCCCCNC(=O)CCCCCCCCCCCCCCCCCCC(=O)N*` (repeat unit), which glass transition temperature is on record?
Answer: 221.60 °C

Question: Which glass transition temperature does the source give for `*Oc1ccc(N(CC)c2ccc(/C=C(\C#N)C(=O)NC3CCCCC3NC(=O)/C(C#N)=C/c3ccc(N(CC)c4ccc(*)cc4)cc3)cc2)cc1` (repeat unit) here?
Answer: 235.00 °C

Question: For `*CCCCCC(=O)Nc1ccc(Oc2ccc(NC(=O)CCCCCN3C(=O)c4ccc(C(=O)c5ccc6c(c5)C(=O)N(*)C6=O)cc4C3=O)cc2)cc1` (repeat unit), which glass transition temperature is on record?
Answer: 195.00 °C

Question: With `*CCCS*` (repeat unit) as the molecule, how does the glass transition temperature read?
Answer: -53.50 °C

Question: For `*CC(O)CN(C)S(=O)(=O)c1ccc(-c2ccc(S(=O)(=O)N(C)CC(O)COc3ccc(O*)cc3)cc2)cc1` (repeat unit), which glass transition temperature is on record?
Answer: 84.00 °C

Question: With `*c1ccc(Oc2ccc(-c3nc4cc(Oc5ccc6nc(*)c(-c7ccccc7)nc6c5)ccc4nc3-c3ccccc3)cc2)cc1` (repeat unit) as the molecule, how does the glass transition temperature read?
Answer: 243.00 °C

Question: For `*c1ccc(Oc2ccc(-c3nc4cc(S(=O)(=O)c5ccc6nc(-c7ccccc7)c(*)nc6c5)ccc4nc3-c3ccccc3)cc2)cc1` (repeat unit), which glass transition temperature is on record?
Answer: 290.00 °C

Question: Which glass transition temperature does the source give for `*/C(C)=C(/*)c1ccc([Si](C)(C)C)cc1` (repeat unit) here?
Answer: -5.00 °C

From the PolyMetriX glass transition set
